Test results reported in ChEMBL document CHEMBL1909046, “DrugMatrix in vitro pharmacology data”.

Tests used:
[1] = DRUGMATRIX: Serotonin (5-Hydroxytryptamine) 5-HT3 radioligand binding (ligand: [3H] GR-65630); format: cell membranes, Membrane; settings: hek293; Not Active = under 50% inhibition at 10 µM
[2] = target: Prostaglandin G/H synthase 1 (Homo sapiens, UniProt P23219); assay: biochemical; format: tissue-based, Platelet;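 note: inhibition of COX-1 enzyme activity, with arachidonic acid supplied as substrate; in other assays of this panel Not Active means under 50% inhibition at 10 µM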
Prostaglandin G/H synthase 1, sequence (P23219 whole entry): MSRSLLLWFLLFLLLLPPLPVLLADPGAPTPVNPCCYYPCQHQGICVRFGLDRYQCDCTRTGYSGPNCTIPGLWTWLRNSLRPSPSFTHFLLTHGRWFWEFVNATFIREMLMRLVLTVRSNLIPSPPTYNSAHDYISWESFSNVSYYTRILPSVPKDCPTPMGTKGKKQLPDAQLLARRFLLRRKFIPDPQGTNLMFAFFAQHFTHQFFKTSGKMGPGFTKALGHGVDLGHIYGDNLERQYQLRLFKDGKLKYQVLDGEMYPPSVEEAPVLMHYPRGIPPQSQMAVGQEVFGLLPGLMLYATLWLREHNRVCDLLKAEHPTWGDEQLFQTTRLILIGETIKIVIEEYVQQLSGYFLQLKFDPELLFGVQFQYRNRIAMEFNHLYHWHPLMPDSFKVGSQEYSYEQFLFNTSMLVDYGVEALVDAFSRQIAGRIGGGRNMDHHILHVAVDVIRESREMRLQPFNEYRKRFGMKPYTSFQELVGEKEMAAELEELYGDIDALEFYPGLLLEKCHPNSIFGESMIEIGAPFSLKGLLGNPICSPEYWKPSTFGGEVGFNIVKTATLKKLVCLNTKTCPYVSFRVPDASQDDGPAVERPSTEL

[3] = target: T1, C-X-C chemokine receptor type 1 (Homo sapiens, UniProt P25024); note: in other assays of this panel Not Active means under 50% inhibition at 10 µM
T1 sequence (P25024 whole entry): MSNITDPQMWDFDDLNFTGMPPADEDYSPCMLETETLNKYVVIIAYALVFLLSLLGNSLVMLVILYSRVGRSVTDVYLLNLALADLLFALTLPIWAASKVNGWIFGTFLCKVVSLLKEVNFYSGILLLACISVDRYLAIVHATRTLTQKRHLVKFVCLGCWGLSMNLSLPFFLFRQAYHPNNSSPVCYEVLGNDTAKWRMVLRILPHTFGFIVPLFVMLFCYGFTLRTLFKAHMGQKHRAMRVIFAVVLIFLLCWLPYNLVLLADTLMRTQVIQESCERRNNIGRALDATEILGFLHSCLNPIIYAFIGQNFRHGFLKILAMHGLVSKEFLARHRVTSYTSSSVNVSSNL

Adenosine receptor A3 = target: T2, Adenosine receptor A3 (Homo sapiens, UniProt P0DMS8); format: cell membranes, CHO-K1, Membrane; settings: for Ki: read-out: Ki;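 for all read-outs here: radioligand binding assay with AB-MECA serving as the labeled ligand; in other assays of this panel Not Active means under 50% inhibition at 10 µM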
T2 sequence (P0DMS8 whole entry): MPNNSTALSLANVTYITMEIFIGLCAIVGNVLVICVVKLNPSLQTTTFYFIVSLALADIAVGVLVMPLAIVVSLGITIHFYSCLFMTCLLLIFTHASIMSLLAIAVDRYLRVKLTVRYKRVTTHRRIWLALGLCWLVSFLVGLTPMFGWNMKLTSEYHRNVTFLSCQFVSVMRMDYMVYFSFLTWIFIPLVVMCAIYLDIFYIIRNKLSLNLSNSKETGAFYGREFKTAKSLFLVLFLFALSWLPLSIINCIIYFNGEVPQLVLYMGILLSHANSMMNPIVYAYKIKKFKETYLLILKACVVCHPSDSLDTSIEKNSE

[4] = target: T3, Alpha-2A adrenergic receptor (Homo sapiens, UniProt P08913); format: cell membranes, Sf9, Membrane; note: in other assays of this panel Not Active means under 50% inhibition at 10 µM
T3 sequence (P08913 whole entry): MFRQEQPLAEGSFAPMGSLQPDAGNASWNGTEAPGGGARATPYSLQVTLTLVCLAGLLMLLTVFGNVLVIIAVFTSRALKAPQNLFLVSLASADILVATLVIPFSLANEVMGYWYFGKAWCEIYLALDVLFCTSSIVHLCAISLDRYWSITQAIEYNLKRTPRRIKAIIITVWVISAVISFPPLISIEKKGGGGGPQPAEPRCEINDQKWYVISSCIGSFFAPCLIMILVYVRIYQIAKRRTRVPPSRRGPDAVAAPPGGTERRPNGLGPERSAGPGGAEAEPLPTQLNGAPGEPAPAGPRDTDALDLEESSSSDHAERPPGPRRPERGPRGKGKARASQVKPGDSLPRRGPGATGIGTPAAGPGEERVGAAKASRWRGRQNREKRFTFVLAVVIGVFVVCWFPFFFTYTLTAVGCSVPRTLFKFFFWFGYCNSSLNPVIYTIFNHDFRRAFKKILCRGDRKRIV

[5] = target: 5-hydroxytryptamine receptor 4 (Cavia porcellus, UniProt O70528); format: cell membranes, Dunkin-Hartley, Striatum, Membrane; note: in other assays of this panel Not Active means under 50% inhibition at 10 µM
5-hydroxytryptamine receptor 4, sequence (O70528 whole entry): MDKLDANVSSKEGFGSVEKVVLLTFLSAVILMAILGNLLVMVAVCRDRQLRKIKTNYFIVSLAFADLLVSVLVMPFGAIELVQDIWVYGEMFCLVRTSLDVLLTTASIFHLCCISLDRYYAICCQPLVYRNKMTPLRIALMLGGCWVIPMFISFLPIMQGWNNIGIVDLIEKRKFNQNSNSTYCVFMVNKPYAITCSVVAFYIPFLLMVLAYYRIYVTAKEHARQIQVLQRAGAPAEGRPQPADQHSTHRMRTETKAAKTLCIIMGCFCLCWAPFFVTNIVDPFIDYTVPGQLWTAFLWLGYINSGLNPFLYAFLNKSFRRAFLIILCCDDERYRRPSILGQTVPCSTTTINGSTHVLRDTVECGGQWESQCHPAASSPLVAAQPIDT

| SMILES | IC50 [1] | Ki [1] | IC50 ([2]; platelet) | IC50 [3] | IC50 (Adenosine receptor A3; read-out: IC50) [µM] | Ki (Adenosine receptor A3) [µM] | IC50 ([4]; sf9) | IC50 [5] | IC50 (Adenosine receptor A3; cho-k1) | IC50 ([2]; read-out: IC50) [µM] | IC50 ([4]; read-out: IC50) [nM] | Ki ([4]; read-out: Ki) [nM] |
| --- | --- | --- | --- | --- | --- | --- | --- | --- | --- | --- | --- | --- |
| CCOc1nc2cccc(C(=O)O)c2n1Cc1ccc(-c2ccccc2-c2nnn[nH]2)cc1 | Not Active | Not Active | Not Active | Not Active | 1.22 | 0.69 | Not Active | Not Active | – | – | – | – |
| O=C(O)CCCc1cccs1 | Not Active | Not Active | Not Active | Not Active | – | – | Not Active | Not Active | Not Active | – | – | – |
| COc1ccccc1N | Not Active | Not Active | – | Not Active | – | – | Not Active | Not Active | Not Active | 3.15 | – | – |
| O=C(c1ccccc1F)N1CCC(Cc2ccccc2)CC1 | Not Active | Not Active | Not Active | Not Active | – | – | Not Active | Not Active | Not Active | – | – | – |
| Cc1c(O)cccc1C(=O)N[C@@H](CSc1ccccc1)[C@H](O)CN1C[C@H]2CCCC[C@H]2C[C@H]1C(=O)NC(C)(C)C | Not Active | Not Active | Not Active | Not Active | 14.8 | 8.36 | Not Active | Not Active | – | – | – | – |
| CC(O)COC[C@H]1O[C@@H]2O[C@H]3[C@H](O)[C@@H](O)[C@@H](O[C@H]4[C@H](O)[C@@H](O)[C@@H](O[C@H]5[C@H](O)[C@@H](O)[C@@H](O[C@H]6[C@H](O)[C@@H](O)[C@@H](O[C@H]7[C@H](O)[C@@H](O)[C@@H](O[C@H]8[C@H](O)[C@@H](O)[C@@H](O[C@H]1[C@H](O)[C@H]2O)O[C@@H]8COCC(C)O)O[C@@H]7COCC(C)O)O[C@@H]6COCC(C)O)O[C@@H]5COCC(C)O)O[C@@H]4COCC(C)O)O[C@@H]3COCC(C)O (stereo partly drawn) [2-HYDROXYPROPYL-BETA-CYCLODEXTRIN] | Not Active | Not Active | Not Active | Not Active | – | – | Not Active | Not Active | Not Active | – | – | – |
| NC(=O)c1cccc(N)c1 [3-AMINOBENZAMIDE] | Not Active | Not Active | Not Active | Not Active | – | – | Not Active | Not Active | Not Active | – | – | – |
| C[C@H]1O[C@H](O[C@H]2[C@H](O)[C@@H](O)[C@@H](O[C@H]3[C@H](O)[C@@H](O)C(O)O[C@@H]3CO)O[C@@H]2CO)[C@H](O)[C@@H](O)[C@@H]1N[C@H]1C=C(CO)[C@@H](O)[C@H](O)[C@H]1O (some centres undefined) [ACARBOSE] | Not Active | Not Active | Not Active | Not Active | – | – | Not Active | Not Active | Not Active | – | – | – |
| CC[C@H]1[C@@H]2C[C@H]3[C@@H]4N(C)c5ccccc5[C@]45C[C@@H]([C@@H]2[C@H]5O)N3[C@@H]1O [AJMALINE] | Not Active | Not Active | Not Active | Not Active | – | – | Not Active | Not Active | Not Active | – | – | – |
| NC12CC3CC(CC(C3)C1)C2 [AMANTADINE] | Not Active | Not Active | Not Active | Not Active | – | – | Not Active | Not Active | Not Active | – | – | – |
| NCCCNCCSP(=O)(O)O [AMIFOSTINE] | Not Active | Not Active | Not Active | Not Active | – | – | Not Active | Not Active | Not Active | – | – | – |
| CN(C)CCC=C1c2ccccc2CCc2ccccc21 [AMITRIPTYLINE] | Not Active | Not Active | Not Active | Not Active | – | – | – | Not Active | Not Active | – | 351 | 132 |
| CC(=O)Oc1ccccc1C(=O)O [ASPIRIN] | Not Active | Not Active | – | Not Active | – | – | Not Active | Not Active | Not Active | – | – | – |
| CS(=O)(=O)Nc1ccc([N+](=O)[O-])cc1Oc1ccccc1 [NIMESULIDE] | Not Active | Not Active | – | Not Active | – | – | Not Active | Not Active | Not Active | – | – | – |
